In article PMC6514670, “Field-Based Affinity Optimization of a Novel Azabicyclohexane Scaffold HIV-1 Entry Inhibitor” (Molecules, 2019):

How the values were obtained:
[1] = target: B41 SOSIP.664 gp140 trimer (Human immunodeficiency virus type 1, UniProt B3UES2, A505C/E513R/I563P/INS515RR/K514R/T609C); format: binding, HIV-1
[2] = tested on: HIV-1HxBc2 Env pseudotyped HIV-1; experiment: Single-round infection assay, HxBc2 Env pseudotyped virus; details: Human immunodeficiency virus 1, U87.CD4.CXCR4, 48 h, read-out: IC50 HxBc2
[3] = tested on: HIV-1JRCSF Env pseudotyped HIV-1; experiment: Single-round infection assay, JRCSF Env pseudotyped virus; details: Human immunodeficiency virus 1, U87/CD4/CCR5, 48 h, read-out: IC50 JRCSF
[4] = tested on: U87.CD4.CCR5/CXCR4 cells; experiment: Cellular toxicity (Cell Counting Kit-8); format: cell-based, Human; details: CC50 / median IC50
Description: (§1) The viability of the U87.CD4.CCR5/CXCR4 cells was determined using the Cell Counting Kit-8 cell proliferation and cytotoxicity assay (Dojindo Molecular Technologies, Rockville, MD, USA) per the manufacturer’s instructions. U87.CD4.CCR5/CXCR4 cells (1.2 × 10^4 cells/well) were seeded in 96-well tissue culture plates (Olympus Plastics, San Diego, CA, USA). After 24 h, cells were treated with compound (0.1–1000 µM) or DMSO (Sigma) for 48 h at 37 °C. Subsequently, 10 µL of the CCK-8 solution was added to each well and incubated for 4 h at 37 °C. Following the 4 h incubation, the absorbance at 450 nm was measured in a Multiskan™ GO Microplate Spectrophotometer (Thermo Scientific). Untreated cells were used as a background control and 0.1% SDS treated cells were used as a positive control.

[5] = Cellular toxicity (Cell Counting Kit-8); format: cell-based, Human; details: human, U87.CD4.CCR5/CXCR4 cells; 48 h, CCK-8, 0.1–1000 µM
Description: as §1

[6] = tested on: HIV-1B41, HIV-1HxBc2, HIV-1JRCSF, HIV-1JRFL, and HIV-1YU-2 Env pseudotyped HIV-1; experiment: Single-round infection assay, summary over the five Env pseudotypes; details: Human immunodeficiency virus 1, read-out: Median IC50
[7] = tested on: HIV-1JRFL Env pseudotyped HIV-1; experiment: Single-round infection assay, JRFL Env pseudotyped virus; details: Human immunodeficiency virus 1, U87/CD4/CCR5, 48 h, read-out: IC50 JRFL
[8] = tested on: HIV-1YU-2 Env pseudotyped HIV-1; experiment: Single-round infection assay, YU-2 Env pseudotyped virus; details: Human immunodeficiency virus 1, U87/CD4/CCR5, 48 h, read-out: IC50 YU-2
[9] = tested on: HIV-1B41 Env pseudotyped HIV-1; experiment: Single-round infection assay, B41 Env pseudotyped virus; details: Human immunodeficiency virus 1, U87/CD4/CCR5, 48 h, read-out: IC50 B41

SMILES | ka [1] | kd [1] | IC50 [2] [nM] | IC50 [3] [nM] | Therapeutic Index (CC50/IC50) [4] | CC50 at 48 h [5] [nM] | IC50 [6] [nM] | IC50 [7] [nM] | IC50 [8] [nM] | IC50 [9] [nM] | improvement in KD (affinity) in comparison to parental SC28 [1] [fold] | SPR surface saturation ([1]; 12.5 µM and 6.25 µM, 13000 RUs trimer immobilized, theoretical Rmax 41 RUs) | increase of ka parameter in comparison to SC28 ([1]; SPR) [factor]
COc1cnc(-n2cnc(C)n2)c2[nH]cc(C(=O)C(=O)N3CC4CN(C(=O)c5ccccc5)CC4C3)c12 (stereo not shown) [SC11] | 3.83 ± 1.12 × 10^3 M^−1s^−1 | 5.02 ± 2.67 × 10^−4 s^−1 |  |  |  |  |  |  |  |  |  |  | 
COc1cnc(-n2cnc(C)n2)c2[nH]cc(C(=O)C(=O)N3CC(CCC(=O)c4ccccc4)C3)c12 [SC15] | 3.01 ± 0.188 × 10^5 M^−1s^−1 | 5.44 ± 0.677 × 10^−3 s^−1 |  |  |  |  |  |  |  |  |  |  | 
COc1cnc(-n2cnc(C)n2)c2[nH]cc(C(=O)C(=O)NC3C4CN(C(=O)c5ccccc5)CC43)c12 (stereo not shown) [SC28] | 1.39 ± 0.14 × 10^4 M^−1s^−1 | 6.99 ± 0.43 × 10^−3 s^−1 | 21 ± 5 | 26 ± 9 | 1291.21 | 190000 ± 54000 | 150 ± 170 | 170 ± 50 | 480 ± 50 | 35 ± 6.2 |  |  | 
COc1cnc(-n2cnc(C)n2)c2[nH]cc(C(=O)C(=O)N3CC=C(CNC(=O)c4ccccc4)CC3)c12 [SC45] | 1.38 ± 0.045 × 10^4 M^−1s^−1 | 1.52 ± 0.0294 × 10^−2 s^−1 |  |  |  |  |  |  |  |  |  |  | 
CNC(=O)c1ncc(OC)c2c(C(=O)C(=O)NC3C4CN(C(=O)c5ccccc5)CC43)c[nH]c12 (stereo not shown) [SC49] | 9.49 ± 1.6 × 10^2 M^−1s^−1 | 3.43 ± 0.36 × 10^−2 s^−1 | 62000 ± 1400 |  | 7.31 | 326000 ± 81000 | 45000 ± 15000 | 33300 ± 11600 | 57200 ± 26500 | 26000 ± 19000 |  |  | 
O=C(NC1C2CN(C(=O)c3ccccc3)CC21)C(=O)c1c[nH]c2c(-c3cccnc3)ncc(F)c12 (stereo not shown) [SC50] |  |  | 6900 ± 5200 | 28900 ± 5620 | 6.63 | 120000 ± 18000 | 18000 ± 9000 | 24300 ± 6200 | 22600 ± 4200 | 7100 ± 4200 |  |  | 
C=C(C(=O)NC1C2CN(C(=O)c3ccccc3)CC21)n1ccc2c(-n3cnc(C)n3)nc3ccnn3c21 (stereo not shown) [SC52, N-(3-benzoyl-3-azabicyclo[3.1.0]hexan-6-yl)-2-(5-(3-methyl-1H-1,2,4-triazol-1-yl)-8H-pyrazolo[1,5-a]pyrrolo[3,2-e]pyrimidin-8-yl)acrylamide] |  |  | 440 ± 170 | 2020 ± 250 | 8.65 | 9200 ± 1100 | 1060 ± 668 |  | 1350 ± 440 | 430 ± 100 |  |  | 
Nc1nc(-c2ccc(F)c3c(C(=O)C(=O)NC4C5CN(C(=O)c6ccccc6)CC54)c[nH]c23)no1 (stereo not shown) [SC55, 2-(7-(5-amino-1,2,4-oxadiazol-3-yl)-4-fluoro-1H-indol-3-yl)-N-(3-benzoyl-3-azabicyclo[3.1.0]hexan-6-yl)-2-oxoacetamide] |  |  | 730 ± 560 | 450 ± 350 | 75.85 | 73000 ± 14000 | 960 ± 590 | 450 ± 330 | 1150 ± 810 | 2020 ± 810 |  |  | 
COc1ccc(-c2noc(N)n2)c2[nH]cc(C(=O)C(=O)NC3C4CN(C(=O)c5ccccc5)CC43)c12 (stereo not shown) [SC56, 2-(7-(5-Amino-1,2,4-oxadiazol-3-yl)-4-methoxy-1H-indol-3-yl)-N-(3-benzoyl-3-azabicyclo[3.1.0]hexan-6-yl)-2-oxoacetamide] | 1.22 ± 0.067 × 10^7 M^−1s^−1 | 6.39 ± 0.31 × 10^−3 s^−1 | 11 ± 3 | 46 ± 9 | 1344.71 | 94000 ± 10000 | 69.8 ± 45 | 130 ± 15 | 110 ± 49 | 51 ± 8 | 1000 | saturate the surface | 1000
